# Test results as given in patent publication EP4592274A1, “RADIOLABELED TYROSINE DERIVATIVE AND APPLICATION THEREOF” (OSAKA UNIVERSITY, priority 2022, dated 2024).
# Legend:
# [1] = test system: CDDP-resistant A549 (A549 CDDP-r); experiment: Cytotoxicity test on CDDP-resistant A549 (Test Example 8); details: cultivation for 48 hours
# Protocol: Two days before experiment, A549 and CDDP-resistant A549 (A549 CDDP-r) were each seeded in a 96-well plate at a concentration of 1 × 10^5 cells/mL. ^211At-AAMT-OMe or ^211At-AAMT adjusted to a predetermined concentration was added to A549 cells and CDDP-resistant A549 cells, respectively, and the cells were cultured (CO2 5%, 37°C). After the cultivation for 48 hours, Cell counting kit-8 (DOJINDO LABORATORIES) was added. After the addition, the cells were cultured at 37°C for 1 hour, and cell viability was measured using absorbance at 450 nm as an indicator.
# [2] = test system: human pancreatic cancer cell line, PANC1; experiment: Imaging of mice subcutaneously transplanted with PANC1 (Test Example 2); details: 2 hours after administration, 0.5 MBq per mouse via tail vein
# Text: Immunodeficient mice (Balb/c-nu/nu, 5-week-old, male) were habituated for 1 week and then subcutaneously transplanted with a human pancreatic cancer cell line (PANC1, 1 × 10^7 cells/mouse). After the transplantation, the mice were observed over time until tumor reached a size large enough for imaging (about 1000 mm^3). […] Two hours after administration, the mice were anesthetized by isoflurane inhalation, and planar images were taken using a γ camera (E-cam, Siemens).
# [3] = test system: human pancreatic cancer cell line, PANC1; experiment: Measurement of accumulated amounts of 211At-labeled compounds in tumors of PANC1 transplanted mice (Test Example 5); format: in vivo; details: 0.1 MBq per mouse via tail vein
# Protocol: Radiation doses before and after the administration were measured, and a difference between them was defined as an injected dose (ID). Ten minutes and one hour after administration, the mice were anesthetized by isoflurane inhalation, the tumors were isolated by autopsy in chronological order, and their radiation doses and weights were measured using a gamma counter (2480 Wizard^2, PerkinElmer) and a semimicro scale (Shimadzu Corporation, readability 10 µg), respectively. For comparison between accumulated amounts, accumulated amounts per unit amount (% ID/g) were calculated.
# [4] = test system: gemcitabine-resistant human pancreatic cancer cell line, PANC1 (PANC1 Gem-r); experiment: Cell viability of gemcitabine-resistant PANC1 in the presence of gemcitabine (Test Example 11); format: cell-based; details: PANC1 Gem-r at 30 µg/mL gemcitabine
# Protocol: Gemcitabine (Gem) was added to a human pancreatic cancer cell line, PANC1 at an initial concentration of 100 ng/mL. After 3 days, dead cells were removed, and gemcitabine was again added. Cells that grew like a human pancreatic cancer cell line, PANC1 even in the presence of gemcitabine were isolated and maintained for 3 months while gradually increasing the concentration of gemcitabine in a culture medium.
# HEK293-hLAT1 cells = molecular target: T1, HEK293-hLAT1 cells (Homo sapiens, UniProt Q01650); experiment: Cellular uptake test (using HEK293); format: cell-based
# T1 construct: expressed in transfected cells; host or cells: HEK293
# Protocol: • Cells to be used: HEK293-Mock, HEK293-hLAT1, HEK293-hLAT2 (HEK293: Human Embryonic Kidney cells 293) • Culture medium to be used: E-MEM (containing 10% FBS, 1% P/S, 1% NEAA)
# Two days before a test day, a cell suspension was prepared in such a manner that the concentration of predetermined cells was 1 x 10^5 cells/mL. The cell suspension was seeded in a 24-well multiculture plate at a volume of 0.5 mL per well. On the day of the test, cultures were confirmed to be subconfluent (which refers to a state where 70-80% of the well is covered in density). […]
# ^211At-AAMT-OMe or ^211At-AAMT was added to the prepared cells at 10 µL/well. […] The cells were lysed by adding 0.1N NaOH to obtain a lysate, and the radioactivity of the lysate was measured using a γ counter. After the radioactivity measurement, the lysate was loaded into a 96-well plate at a volume of 10 µL per well, the protein amount was measured by the BCA method, and the number of cells was corrected based on the protein amount. Absorbance was measured by MultiScanFC (Thermo Fisher). The uptake level of ^211At-AAMT-OMe or ^211At-AAMT into the cells (number of radioactivity counts/protein amount) was calculated.
# A549 = experiment: Therapeutic test on mice subcutaneously transplanted with A549 (Test Example 9); format: in vivo; details: A549, 30 days after administration, 0.5 MBq per mouse; compared with 211At-AAMT
# Protocol: The mice were observed over time until engraftment of tumors was confirmed (50 to 100 mm^3), and when the tumors reached a predetermined size, ^211At-AAMT-OMe or ^211At-AAMT diluted with water for injection to 0.5 MBq/0.2 mL per mouse was administered via tail vein. Thirty days after administration, the mice were euthanized and tumor masses were isolated. After fat tissue and the like were trimmed off, the wet weights of the isolated tumor masses were measured to make a histogram.
# [5] = test system: human pancreatic cancer cell line, PANC1; experiment: Therapeutic test on mice subcutaneously transplanted with PANC1 (Test Example 3); format: in vivo
# Text: Twenty-eight days after administration, the mice were euthanized and subjected to autopsy, and tumor masses were isolated after organs were examined for abnormalities.
# [6] = Thin-layer chromatography (TLC) analysis of decomposition after production; format: physicochemical; details: 24 hours after purification; in sodium ascorbate aqueous solution (final concentration 1%)
# Protocol: The crude product solution (1 µL) was analyzed by thin-layer chromatography (TLC). The sample was spotted on a thin-layer plate (silica gel 60F254), and a mixed solvent of acetonitrile/water (2/1) was used as a developing solvent. The thin-layer plate was exposed to an imaging plate (BAS IP MS 2025E, GE Healthcare) for about 15 min, and then analyzed by a bioimage analyzer (Tyhoon™ FLA-7000, Cytiva). The results are shown in Fig.2. ^211At-AAMT-OMe in the crude product solution was detected at Rf 0.80, and the radiochemical yield (RCY) was 81.3%.
# Before purification, immediately after production, 3 hours after production, and 24 hours after production, ^211At-AAMT-OMe was analyzed by thin-layer chromatography (TLC) in the same manner as described above.
# 24 hours after production, (R)-^211At-AAMT-OMe was analyzed by thin-layer chromatography (TLC) in the same manner as described above.
# 24 hours after production, ^211At-AAMT-OEt was analyzed by thin-layer chromatography (TLC) in the same manner as described above.
# 24 hours after production, ^211At-AAMT-OPr was analyzed by thin-layer chromatography (TLC) in the same manner as described above.
# 24 hours after production, ^211At-AAMPhe-OMe was analyzed by thin-layer chromatography (TLC) in the same manner as described above.
# PANC1 = experiment: Cellular uptake test (using PANC1); format: cell-based, human; details: compared to 211At-AAMT; for uptake speed: PANC1 cells
# Protocol: • Cells to be used: PANC1 • Culture medium to be used: D-MEM (containing 10% FBS, 1% P/S)
# Two days before a test day, a cell suspension was prepared in such a manner that the concentration of predetermined cells was 1 x 10^5 cells/mL in the same manner as in Test Example 1. The cell suspension was seeded in a 24-well multiculture plate at a volume of 0.5 mL per well. On the day of the test, cultures were confirmed to be subconfluent (which refers to a state where 70-80% of the well is covered in density). The cells were washed twice with warmed PBS(-) Buffer (166-23555, FUJIFILM Wako Pure Chemical Corporation), the culture medium was replaced with HBSS(-) Buffer (085-09355, FUJIFILM Wako Pure Chemical Corporation), and the plate was left to stand in an incubator (MINIcell-35, WakenBtech Co., Ltd) until an RI addition test.
# ^211At-AAMT-OMe, ^211At-AAMT-OEt, ^211At-AAMT-OPr, or ^211At-AAMT was added to the prepared cells at 10 µL/well. BCH (LAT1 inhibitor, 20 mM) or unlabeled AMT (α-methyl tyrosine, […]) was previously (15 minutes before) added (10 µg/mL). The cells were cultured (CO2 5%, 37°C), and after 30 minutes, the liquid was removed by suction using an aspirator. The cells were washed twice with PBS(-). The cells were lysed by adding 0.1N NaOH to obtain a lysate, and the radioactivity of the lysate was measured using a γ counter. After the radioactivity measurement, the lysate was loaded into a 96-well plate at a volume of 10 µL per well, the protein amount was measured by the BCA method, and the number of cells was corrected based on the protein amount. Absorbance was measured by MultiScanFC (Thermo Fisher). The uptake level of ^211At-AAMT-OMe, ^211At-AAMT-OEt, ^211-At-AAMT-OPr, or ^211At-AAMT into the cells (number of radioactivity counts/protein amount) was calculated.
# [7] = test system: CDDP-resistant A549 (A549 CDDP-r); details: 30 days after administration, 0.5 MBq per mouse, compared with 211At-AAMT
# Protocol: (§1) Thirty days after administration, the mice were euthanized and tumor masses were isolated. After fat tissue and the like were trimmed off, the wet weights of the isolated tumor masses were measured to make a histogram.
# [8] = test system: Gem-resistant PANC1 (PANC1 Gem-r); details: mouse, in vivo
# Protocol: as §1
# [9] = test system: human pancreatic cancer cell line, PANC1; details: up to 21 days after administration, 1 MBq per mouse
# Protocol: Tumor sizes and body weights were measured over time after the administration. The experiment was terminated 21 days after administration. It should be noted that in Fig. 21 and Fig. 22, "OMe" is ^211At-AAMT-OMe and "OEt" is ^211At-AAMT-OEt.
# [10] = test system: CDDP-resistant A549 (A549 CDDP-r); experiment: Cell viability of CDDP-resistant A549 in the presence of CDDP (Test Example 7); format: cell-based, human; details: A549 CDDP-r at 100 µg/mL CDDP
# Protocol: Cisplatin (CDDP) was added to a human lung cancer cell line, A549 at an initial concentration of 1 µg/mL. After 3 days, dead cells were removed, and CDDP was again added. Cells that grew like A549 even in the presence of CDDP were isolated and maintained for 3 months while gradually increasing the concentration of CDDP in a culture medium.
# [11] = 10 minutes after administration
# T1 sequence (Q01650 whole entry): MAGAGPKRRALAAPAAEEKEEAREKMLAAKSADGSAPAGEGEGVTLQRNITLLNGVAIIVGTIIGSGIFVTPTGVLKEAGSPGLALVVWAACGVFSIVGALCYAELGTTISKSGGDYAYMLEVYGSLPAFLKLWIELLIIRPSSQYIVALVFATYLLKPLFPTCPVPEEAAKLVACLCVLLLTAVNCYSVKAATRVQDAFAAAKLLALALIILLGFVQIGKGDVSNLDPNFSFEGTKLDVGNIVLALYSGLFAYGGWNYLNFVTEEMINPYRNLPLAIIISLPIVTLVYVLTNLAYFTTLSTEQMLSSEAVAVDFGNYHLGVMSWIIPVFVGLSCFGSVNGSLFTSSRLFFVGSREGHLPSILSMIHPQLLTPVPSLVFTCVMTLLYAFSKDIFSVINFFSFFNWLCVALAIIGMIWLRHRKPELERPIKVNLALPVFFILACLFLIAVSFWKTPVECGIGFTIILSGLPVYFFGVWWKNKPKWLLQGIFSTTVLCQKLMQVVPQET
# T1 sequence (P08195 102-630 partner): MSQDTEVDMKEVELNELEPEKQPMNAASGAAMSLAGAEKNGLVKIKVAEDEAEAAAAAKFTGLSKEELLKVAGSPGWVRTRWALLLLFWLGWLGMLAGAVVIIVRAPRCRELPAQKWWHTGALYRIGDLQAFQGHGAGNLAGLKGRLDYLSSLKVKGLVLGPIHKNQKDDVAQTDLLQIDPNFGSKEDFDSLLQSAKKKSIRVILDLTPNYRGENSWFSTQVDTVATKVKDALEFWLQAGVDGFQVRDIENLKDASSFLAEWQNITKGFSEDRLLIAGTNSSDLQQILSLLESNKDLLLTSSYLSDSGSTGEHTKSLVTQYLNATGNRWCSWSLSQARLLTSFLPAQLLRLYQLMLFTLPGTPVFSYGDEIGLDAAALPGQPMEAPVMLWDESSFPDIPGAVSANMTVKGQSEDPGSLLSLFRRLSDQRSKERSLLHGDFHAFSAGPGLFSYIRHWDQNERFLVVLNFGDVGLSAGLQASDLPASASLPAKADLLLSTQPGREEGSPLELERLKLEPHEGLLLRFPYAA
SMILES,"tumor accumulation [3, 11] [%ID/g]",tumor accumulation ([3]; 1 hour after administration) [%ID/g],decomposition (TLC) [6],uptake speed (PANC1),uptake level into the cells (number of radioactivity counts/protein amount) (PANC1),also measured
"C[C@](N)(Cc1ccc(O)c([At])c1)C(=O)O [^211At-AAMT, astato(^211At)-α-methyl-L-tyrosine, reference compound]",0.29,2.49,,,,"cytotoxicity (cell viability, Cell counting kit-8) [1]: has cytotoxicity; accumulation in the tumor (planar image, γ camera) [2]: accumulated in the tumor sites"
"Nc1ccn([C@@H]2O[C@H](CO)[C@@H](O)C2(F)F)c(=O)n1 [gemcitabine, Gemcitabine]",,,,,,cell viability [4]: still alive
"COc1ccc(C[C@](C)(N)C(=O)O)cc1[211At] [^211At-AAMT-OMe, (S)-3-astato(^211At)-O-methyl-α-methyltyrosine]",2.59,3.78,no decomposition,much superior,much superior,"uptake level into the cells (number of radioactivity counts/protein amount) (HEK293-hLAT1 cells; HEK293-hLAT1 cells (CTL), 30 minutes, comparable to 211At-AAMT): strongly taken up; uptake into the cells in the presence of inhibitor (HEK293-hLAT1 cells; HEK293-hLAT1 cells, in the presence of BCH and AMT): significantly inhibited; cytotoxicity (cell viability, Cell counting kit-8) [1]: more remarkable cytotoxicity; anti-tumor effect (tumor weight) (A549): comparable; tumor size (wet weight of isolated tumor masses) ([5]; 28 days after administration, 1 MBq per mouse via tail vein, compared with the 211At-AAMT administration group): slightly smaller; mouse body weight ([5]; immediately after administration to 28th day, 1 MBq per mouse, not at a level regarded as a side effect): tends to slightly reduce; accumulation in the tumor (planar image, γ camera) [2]: accumulated in the tumor sites; anti-tumor effect (tumor weight) [7]: higher; anti-tumor effect (tumor weight) [8]: higher; tumor growth inhibiting effect (tumor size) [8]: higher; apparent toxicity induced by administration [9]: not observed; body weight [9]: gently increased"
"CCCOc1ccc(C[C@](C)(N)C(=O)O)cc1[At] [^211At-AAMT-OPr, (S)-3-astato(^211At)-O-propyl-α-methyltyrosine]",5.91,9.45,no decomposition,comparable or superior,comparable or superior,
"[NH2][Pt]([NH2])([Cl])[Cl] [CDDP, Cisplatin]",,,,,,cell viability [10]: still alive
"CCOc1ccc(C[C@](C)(N)C(=O)O)cc1[At] [^211At-AAMT-OEt, (S)-3-astato(^211At)-O-ethyl-α-methyltyrosine]",4.21,3.59,no decomposition,comparable or superior,comparable or superior,apparent toxicity induced by administration [9]: not observed; body weight [9]: gently increased; tumor growth inhibiting effect (tumor size) ([9]; compared with the 211At-AAMT-OMe administration group): comparable
"COc1ccc(C[C@@](C)(N)C(=O)O)cc1[At] [(R)-^211At-AAMT-OMe, (R)-3-astato(^211At)-O-methyl-α-methyltyrosine]",,,no decomposition,,,
"COc1cc(C[C@](C)(N)C(=O)O)ccc1[At] [^211At-AAMPhe-OMe, (S)-α-methyl-4-astato(^211At)-3-methoxyphenylalanine]",3.77,6.38,no decomposition,,,
